Assay results: patent US4895834A, “Renin inhibitors III” (Warner-Lambert Company, priority 1987, dated 1990)
pIC50: −log10 of the molar value.

Key:
[1] = test system: renin maintained blood pressure (Hog renin infused); experiment: lowering renin maintained blood pressure in the anesthetized, vagotomized, ganglionic-blocked rat (hog renin infused); assay type: in vivo; conditions: 1 mg/kg IV
Experimental: The effectiveness of the aforementioned compounds in vivo is determined by their effect on lowering renin maintained blood pressure in the anesthetized, vagotomized, ganglionic-blocked rat.
After the blood pressure has stabilized, 1.25 mg/kg IV mecamylamine is added to produce ganglionic blockade. Hog renin is then infused to bring the blood pressure to a level observed before vagotomy and ganglionic blockade. Test compound is then administered IV and the drop in blood pressure is noted.
The compound was administered at as dose of 1 mg/kg.

renin = target: T1, renin (Homo sapiens, UniProt P00797); experiment: in vitro renin inhibitory activity, radioimmunoassay for angiotensin I; assay type: biochemical; conditions: molar concentration causing 50% inhibition of renin activity; renin incubated two hours at 37° with angiotensinogen
T1 sequence (P00797 67-406): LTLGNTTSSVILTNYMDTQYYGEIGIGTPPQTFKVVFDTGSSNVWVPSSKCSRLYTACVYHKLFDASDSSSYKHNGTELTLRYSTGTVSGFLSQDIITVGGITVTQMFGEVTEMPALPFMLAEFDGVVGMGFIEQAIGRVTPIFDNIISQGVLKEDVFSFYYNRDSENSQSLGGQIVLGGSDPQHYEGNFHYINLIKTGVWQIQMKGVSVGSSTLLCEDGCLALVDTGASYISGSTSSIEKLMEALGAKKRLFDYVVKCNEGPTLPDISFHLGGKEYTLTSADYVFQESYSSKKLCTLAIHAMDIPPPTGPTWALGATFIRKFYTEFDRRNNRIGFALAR
Experimental: The effectiveness of the aforementioned compound is determined by a test for in vitro renin inhibitory activity. This activity is determined by a standard radioimmunoassay for angiotensin I. In this assay the enzyme, renin, incubated for two hours at 37° in the presence of a substrate, angiotensinogen, generates the product, angiotensin I. Test compounds are added to the incubation mixture. Relative activity is reported as the IC50, which is the molar concentration of test compound causing a 50% inhibition of the renin activity.

Row | Compound | Percent Decrease of Blood Pressure [1] | pIC50 (renin)
1 | CC(C)C[C@H](NC(=O)C[C@H](O)[C@H](CC(C)C)NC(=O)[C@H](Cc1c[nH]cn1)NC(=O)C(Cc1cccc2ccccc12)Cc1cccc2ccccc12)C(=O)NCc1ccccc1 [Example 1, DNMA-HIS-STA-LEU-NHCH2 Ph] | 65% | 
2 | CC[C@H](C)CNC(=O)C[C@H](O)[C@H](CC(C)C)NC(=O)[C@H](Cc1c[nH]cn1)NC(=O)C(Cc1cccc2ccccc12)C(=O)OC(C)(C)C (some centres unmarked) [Example 2] |  | 6.25
3 | CC(C)C[C@H](NC(=O)[C@H](Cc1c[nH]cn1)NC(=O)C(Cc1cccc2ccccc12)Cc1cccc2ccccc12)[C@@H](O)CC(=O)NCC(O)CSC(C)C (some centres unmarked) [Example 3, DNMA-HIS-STA-NHCH2 CH(OH)CH2 SCH(CH3)2] |  | 6.66
4 | CC(C)C[C@H](NC(=O)[C@H](Cc1c[nH]cn1)NC(=O)C(Cc1cccc2ccccc12)Cc1cccc2ccccc12)[C@@H](O)CC(=O)NCC(O)CS(=O)(=O)C(C)C (some centres unmarked) [Example 4, DNMA-HIS-STA-NHCH2 CH(OH)CH2 SO2 CH(CH3)2] |  | 7.09
5 | CC(C)C[C@H](NC(=O)C[C@H](O)[C@H](CC(C)C)NC(=O)[C@H](Cc1c[nH]cn1)NC(=O)C(Cc1ccccc1)SCc1ccccc1)C(=O)NCc1ccccc1 (some centres unmarked) [Example 11] |  | 5.66
6 | CC(C)C[C@H](NC(=O)C[C@H](O)[C@H](CC1CCCCC1)NC(=O)[C@H](CC(=O)O)NC(=O)C(Cc1cccc2ccccc12)Cc1cccc2ccccc12)C(=O)NCc1ccccc1 [Example 17, DNMA-ASP-CYSTA-LEU-NHCH2 Ph] |  | 6.01
7 | CC(C)C[C@H](NC(=O)C[C@H](O)[C@H](CC(C)C)NC(=O)[C@H](Cc1cnc[nH]1)N(C)C(=O)C(Cc1cccc2ccccc12)Cc1cccc2ccccc12)C(=O)NCc1ccccc1 [Example 20, DNMA-(N-MeHIS)-STA-LEU-NHCH2 Ph] |  | 5.39
8 | CC(C)C[C@H](NC(=O)[C@H](Cc1c[nH]cn1)NC(=O)C(Cc1cccc2ccccc12)Cc1cccc2ccccc12)[C@@H](O)CC(=O)NCc1cccc(CNC(=O)OCc2ccccc2)c1 [Example 22] |  | 5.40
